Values of other authors in patent US20220346434A1, “ORAL COMPOSITIONS AND METHODS OF MANUFACTURE” (NICOVENTURES TRADING LIMITED, priority 2021, published 2022).

Columns and labels:
[1] = for solubility in water / aqueous environment: water or aqueous environment (e.g., saliva)
[2] = converts via isomerization into trans-bixin (β-bixin)

SMILES	solubility in water / aqueous environment [1]	chemical stability when isolated [2]	solubility in fats and alcohols ([1]; fats and alcohols)
CC(/C=C/C=C(C)/C=C/C(=O)O)=C\C=C\C=C(C)\C=C\C=C(C)\C=C\C(=O)O (stereo in doubt) [norbixin, (2E,4E,6E,8E,10E,12E,14E,16E,18E)-4,8,13,17-tetramethylicosa-2,4,6,8,10,12,14,16,18-nonaenedioic acid]	water soluble	–	–
C=C(C)[C@@H]1CCC(C)=C[C@H]1c1c(O)cc(CCCCC)cc1O [CBD, cannabidiol, reference compound]	insoluble in an aqueous environment	–	–
COC(=O)/C=C/C(C)=C\C=C\C(C)=C\C=C\C=C(C)\C=C\C=C(C)\C=C\C(=O)O [bixin]	insoluble in water	chemically unstable when isolated	soluble in fats and alcohols
